The subject of one series is RSV A2. As to the kind of experiment: RSV plaque reduction assay. It is filed as cell-based, respiratory syncytial virus (RSV). As to conditions: human respiratory syncytial virus, HepG2, Hep-G2 cells, mean of at least two experiments. The method, boiled down:
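EC50 is the 50% reduction in immunostained plaque count versus virus-control wells, interpolated from variable-slope 4-parameter fits and averaged over at least two runs. Hep-G2 cells were infected with 100 PFU/well RSV A2 premixed with compound, with the inoculum removed after 2 h. Incubation continued at 37 °C for 2 days under a CMC overlay with compound.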

The next series can be described thus: Cell cytotoxicity (CC50). The note with it: human; mean of at least two experiments. The format is cell-based. In outline:
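Values are means of ≥2 independent runs, rounded to whole units, from 4-parameter variable-slope curve fits. Toxicity measured in Hep-G2 cells run alongside RSV plaque-reduction assays.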

Another series can be described thus: in vitro. It is filed as in vitro ADME. The note with it: microsomes, pH 7.4, 1 μM compound, 0.5 mg/mL protein, read-out: Liver Microsomal Stability t1/2. How it is done:
Compounds were subjected to the following assays to investigate liver microsomal stability and hepatocyte stability.
Microsomal Incubation: Experimental Procedure
Pooled liver microsomes were purchased from a reputable commercial supplier and stored at −80° C. prior to use. Microsomes (final protein concentration 0.5 mg/mL), 0.1 M phosphate buffer pH 7.4 and test compound (final substrate concentration 1 μM; final DMSO concentration 0.25%) were pre-incubated at 37° C. prior to the addition of NADPH (final concentration 1 mM) to initiate the reaction. The final incubation volume was 50 μL. A control incubation was included for each compound tested where 0.1 M phosphate buffer pH 7.4 was added instead of NADPH (minus NADPH). Two control compounds were included with each species. All incubations were performed singularly for each test compound. Each compound was incubated for 0, 5, 15, 30 and 45 min. The control (minus NADPH) was incubated for 45 min only. The reactions were stopped by transferring incubate into acetonitrile at the appropriate time points, in a 1:3 ratio. The termination plates are centrifuged at 3,000 rpm for 20 min at 4° C. to precipitate the protein. Following protein precipitation, the sample supernatants were combined in cassettes of up to 4 compounds, internal standard added, and samples analysed by LC-MS/MS. From a plot of ln peak area ratio (compound peak area/internal standard peak area) against time, the gradient of the line was determined. Subsequently, half-life (t1/2) and intrinsic clearance (CLint) were calculated.

The structures appear in SMILES notation. Like-named read-outs stand apart in the source and are kept apart here.

The compound `CN1C[C@H]2C[C@@H]1CN2c1ccc2nc(-c3ccccc3)c(C(=O)N[C@H]3N=C(c4ccccc4)c4cccc(F)c4NC3=O)n2n1` [Example 81, N-[(3S)-9-fluoro-2-oxo-5-phenyl-1,3-dihydro-1,4-benzodiazepin-3-yl]-6-[(1R,4R)-5-methyl-2,5-diazabicyclo[2.2.1]heptan-2-yl]-2-phenylimidazo[1,2-b]pyridazine-3-carboxamide] registered a half-maximal effective concentration (EC50) in the series on RSV A2 of 114 nM. For the same compound, it took 8150 nM to reach half-maximal cytotoxicity in the series “Cell cytotoxicity (CC50)” (CC50). For the same compound, the half-life at 1 μM in the series “in vitro” (dog) was determined as 1.88 h; in the series “in vitro” (human), 0.488 h; in “in vitro” (rat), 1.49 h.

As for `O=C(N[C@H]1N=C(c2ccccc2)c2ccccc2NC1=O)c1c(-c2ccc(F)cc2F)nn2cccnc12` [Example 4, 2-(2,4-difluorophenyl)-N-[(3S)-2-oxo-5-phenyl-1,3-dihydro-1,4-benzodiazepin-3-yl]pyrazolo[1,5-a]pyrimidine-3-carboxamide], the EC50 in the series on RSV A2 stood at 62 nM. This compound displayed a 50% cytotoxic concentration (CC50) in “Cell cytotoxicity (CC50)” of more than 25000 nM. Also, the half-life at 1 μM is 3.93 h in the series “in vitro” (dog), more than 2.33 h in the series “in vitro” (human) and more than 2.33 h in the series “in vitro” (rat).

`O=C(N[C@H]1N=C(c2ccccc2)c2cccc(F)c2NC1=O)c1c(-c2cc(F)ccc2F)nn2cccnc12` [Example 7, 2-(2,5-Difluorophenyl)-N-[(3S)-9-fluoro-2-oxo-5-phenyl-1,3-dihydro-1,4-benzodiazepin-3-yl]pyrazolo[1,5-a]pyrimidine-3-carboxamide]: in the series with RSV A2, the 50% effective concentration (EC50) came to 107 nM. The same compound had a CC50 in the series “Cell cytotoxicity (CC50)” of more than 25000 nM. Further, the half-life at 1 μM is 2.5 h in “in vitro” (dog), 10.7 h in “in vitro” (human) and 2.08 h in the series “in vitro” (rat).

In the series on RSV A2, `COc1ccc2nc(-c3ccccc3)c(C(=O)N[C@H]3N=C(c4ccccc4)c4cccc(F)c4NC3=O)n2n1` [Example 113, N-[(3S)-9-fluoro-2-oxo-5-phenyl-1,3-dihydro-1,4-benzodiazepin-3-yl]-6-methoxy-2-phenylimidazo[1,2-b]pyridazine-3-carboxamide] gave an EC50 of 41 nM. Also, the CC50 in the series “Cell cytotoxicity (CC50)” was more than 25000 nM. Moreover, the half-life at 1 μM worked out at 4.02 h in “in vitro” (dog), 8.63 h in “in vitro” (human) and 1.46 h in “in vitro” (rat).

`Cn1ncc2cc(-c3nn4cccnc4c3C(=O)N[C@H]3N=C(c4ccccc4)c4cccc(F)c4NC3=O)ccc21` [Example 63, N-[(3S)-9-fluoro-2-oxo-5-phenyl-1,3-dihydro-1,4-benzodiazepin-3-yl]-2-(1-methylindazol-5-yl)pyrazolo[1,5-a]pyrimidine-3-carboxamide]: the midpoint of the response in the series with RSV A2, the EC50, lay at 66 nM. Further, the 50% cytotoxic concentration (CC50) in “Cell cytotoxicity (CC50)” is more than 25000 nM. Moreover, the figures for the half-life at 1 μM in “in vitro” (dog), in “in vitro” (human) and in “in vitro” (rat) were 2.53 h, 1.88 h and 3.78 h, respectively.

In the series with RSV A2, `COc1ccc2nc(-c3ccccc3F)c(C(=O)N[C@H]3N=C(c4ccccc4)c4cccc(F)c4NC3=O)n2n1` [Example 115, N-[(3S)-9-fluoro-2-oxo-5-phenyl-1,3-dihydro-1,4-benzodiazepin-3-yl]-2-(2-fluorophenyl)-6-methoxyimidazo[1,2-b]pyridazine-3-carboxamide] gave a concentration for a half-maximal effect (EC50) of 34 nM. In “Cell cytotoxicity (CC50)”, this compound registered a 50% cytotoxic concentration (CC50) of more than 25000 nM. Moreover, the half-life at 1 μM in the series “in vitro” (dog) was 7.78 h; in “in vitro” (human), 2.5 h; in the series “in vitro” (rat), 2.42 h.

In the series on RSV A2, `Cc1ccc(-c2nn3cccnc3c2C(=O)N[C@H]2N=C(c3ccccc3)c3ccccc3NC2=O)c(F)n1` [Example 85, 2-(2-Fluoro-6-methylpyridin-3-yl)-N-[(3S)-2-oxo-5-phenyl-1,3-dihydro-1,4-benzodiazepin-3-yl]pyrazolo[1,5-a]pyrimidine-3-carboxamide] had a concentration for a half-maximal effect (EC50) of 57 nM. In the series “Cell cytotoxicity (CC50)”, this compound came in with a CC50 of more than 25000 nM. Also, the half-life at 1 μM is 1.75 h in the series “in vitro” (dog), more than 2.33 h in the series “in vitro” (human) and 3.3 h in the series “in vitro” (rat).

In turn, `O=C(N[C@H]1N=C(c2ccccc2)c2ccccc2NC1=O)c1c(-c2cccc(F)c2F)nn2cccnc12` [Example 43, 2-(2,3-Difluorophenyl)-N-[(3S)-2-oxo-5-phenyl-1,3-dihydro-1,4-benzodiazepin-3-yl]pyrazolo[1,5-a]pyrimidine-3-carboxamide] displayed a concentration for a half-maximal effect (EC50) in the series with RSV A2 of 60 nM. Moreover, the CC50 in “Cell cytotoxicity (CC50)” is more than 25000 nM. For the same compound, the half-life at 1 μM in the series “in vitro” (dog) came out at 0.97 h; in “in vitro” (human), 3.35 h; in the series “in vitro” (rat) it was 41.5 h.

Turning to `O=C(N[C@H]1N=C(c2ccccc2)c2cccc(F)c2NC1=O)c1c(-c2ccccc2Cl)nn2cccnc12` [Example 10, 2-(2-Chlorophenyl)-N-[(3S)-9-fluoro-2-oxo-5-phenyl-1,3-dihydro-1,4-benzodiazepin-3-yl]pyrazolo[1,5-a]pyrimidine-3-carboxamide], in the series with RSV A2, a half-maximal effect (EC50) was put at 77 nM. In the series “Cell cytotoxicity (CC50)”, this compound registered a CC50 of 21100 nM. The half-life at 1 μM in “in vitro” (dog) is 6.33 h; in the series “in vitro” (human) it was more than 2.33 h; in “in vitro” (rat), 1.83 h.

Take `CCNc1ccc2nc(-c3ccccc3F)c(C(=O)N[C@H]3N=C(c4ccccc4)c4cccc(F)c4NC3=O)n2n1` [Example 106, 6-(Ethylamino)-N-[(3S)-9-fluoro-2-oxo-5-phenyl-1,3-dihydro-1,4-benzodiazepin-3-yl]-2-(2-fluorophenyl)imidazo[1,2-b]pyridazine-3-carboxamide]: the EC50 with RSV A2 amounted to 66 nM. In “Cell cytotoxicity (CC50)”, the CC50 was more than 25000 nM. In addition, the results for the half-life at 1 μM in “in vitro” (dog), in the series “in vitro” (human) and in “in vitro” (rat) were 4.8 h, 0.792 h and 1.46 h, respectively.

In the series with RSV A2, `O=C(N[C@H]1N=C(c2ccccc2)c2ccccc2NC1=O)c1c(-c2ccc(F)cc2F)nc2cccnn12` [Example 88, 2-(2,4-Difluorophenyl)-N-[(3S)-2-oxo-5-phenyl-1,3-dihydro-1,4-benzodiazepin-3-yl]imidazo[1,2-b]pyridazine-3-carboxamide] came in with a concentration for a half-maximal effect (EC50) of 20 nM. This compound had a CC50 in “Cell cytotoxicity (CC50)” of more than 25000 nM. Moreover, the half-life at 1 μM was 1.27 h in “in vitro” (dog), more than 2.33 h in “in vitro” (human) and 3.37 h in “in vitro” (rat).

For the compound `O=C(N[C@H]1N=C(c2ccccc2)c2cccc(F)c2NC1=O)c1c(-c2ccc(N3CCOCC3)nc2)nn2cccnc12` [Example 72, N-[(3S)-9-fluoro-2-oxo-5-phenyl-1,3-dihydro-1,4-benzodiazepin-3-yl]-2-(6-morpholin-4-ylpyridin-3-yl)pyrazolo[1,5-a]pyrimidine-3-carboxamide], in the series on RSV A2, the EC50 amounted to 118 nM. Besides, the CC50 in the series “Cell cytotoxicity (CC50)” was more than 25000 nM. The half-life at 1 μM was found to be 0.857 h in the series “in vitro” (dog), 3 h in “in vitro” (human) and 2.63 h in “in vitro” (rat).

Compound `O=C(N[C@H]1N=C(c2ccccc2)c2ccccc2NC1=O)c1c(-c2ccc(NC3CC3)nc2F)nn2cccnc12` [Example 48, 2-[6-(Cyclopropylamino)-2-fluoropyridin-3-yl]-N-[(3S)-2-oxo-5-phenyl-1,3-dihydro-1,4-benzodiazepin-3-yl]pyrazolo[1,5-a]pyrimidine-3-carboxamide] returned a 50% effective concentration (EC50) in the series on RSV A2 of 13 nM. For the same compound, the CC50 in “Cell cytotoxicity (CC50)” is more than 25000 nM. The half-life at 1 μM in “in vitro” (dog) is 0.37 h; in the series “in vitro” (human), 14.8 h; in “in vitro” (rat), 3.62 h.

Consider `Cc1ccnc2c(C(=O)N[C@H]3N=C(c4ccccc4)c4ccccc4NC3=O)c(-c3ccccc3F)nn12` [Example 37, 2-(2-Fluorophenyl)-7-methyl-N-[(3S)-2-oxo-5-phenyl-1,3-dihydro-1,4-benzodiazepin-3-yl]pyrazolo[1,5-a]pyrimidine-3-carboxamide], for which the response in the series with RSV A2 was half-maximal at 39 nM (EC50). The CC50 in the series “Cell cytotoxicity (CC50)” is more than 25000 nM. Moreover, the half-life at 1 μM was 1.95 h in “in vitro” (dog), more than 2.33 h in “in vitro” (human) and 0.842 h in the series “in vitro” (rat).

`COc1ccc2nc(-c3cncc(C)c3)c(C(=O)N[C@H]3N=C(c4ccccc4)c4cccc(F)c4NC3=O)n2n1` [Example 118, N-[(3S)-9-fluoro-2-oxo-5-phenyl-1,3-dihydro-1,4-benzodiazepin-3-yl]-6-methoxy-2-(5-methylpyridin-3-yl)imidazo[1,2-b]pyridazine-3-carboxamide] gave an EC50 in the series on RSV A2 of 59 nM. In “Cell cytotoxicity (CC50)”, this compound registered a CC50 of more than 25000 nM. Further, the values for the half-life at 1 μM in “in vitro” (dog), in “in vitro” (human) and in the series “in vitro” (rat) were 2.38 h, 1.98 h and 0.808 h, respectively.

The compound `CC(C)Nc1ccc(-c2nn3cccnc3c2C(=O)N[C@H]2N=C(c3ccccc3)c3cccc(F)c3NC2=O)cn1` [Example 74, N-[(3S)-9-Fluoro-2-oxo-5-phenyl-1,3-dihydro-1,4-benzodiazepin-3-yl]-2-[6-(propan-2-ylamino)pyridin-3-yl]pyrazolo[1,5-a]pyrimidine-3-carboxamide] registered an EC50 with RSV A2 of 28 nM. In addition, the half-maximal cytotoxic concentration (CC50) in the series “Cell cytotoxicity (CC50)” is more than 25000 nM. Moreover, the values for the half-life at 1 μM in the series “in vitro” (dog), in the series “in vitro” (human) and in the series “in vitro” (rat) were 0.725 h, 4.4 h and 1.17 h, respectively.

The values are drawn from patent US11634425B2, “Pharmaceutical compounds” (priority 2019, dated 2023).
